Assay results: ChEMBL document CHEMBL1137124, “Lysine sulfonamides as novel HIV-protease inhibitors: Nepsilon-disubstituted ureas” (Bioorg Med Chem Lett, 2004)

What was measured:
[1] = biological target: Human immunodeficiency virus type 1 protease (Human immunodeficiency virus 1, UniProt Q72874); assay: Inhibition constant for HIV aspartyl protease
[2] = system: Human immunodeficiency virus; assay: Effective concentration against wild type HIV virus was determined in anti-viral assay; assay type: functional, organism-based; settings: Human immunodeficiency virus 1
[3] = system: Human immunodeficiency virus; assay: Effective concentration against wild type virus HIV virus was determined in anti-viral assay; assay type: functional, organism-based; settings: Human immunodeficiency virus 1

SMILES: Cc1ccc(S(=O)(=O)N(CC(C)C)[C@@H](CCCCNC(=O)N(Cc2ccccc2)Cc2ccccc2)C(=O)O)cc1
- Ki [1]: 7.2 nM

SMILES: COc1ccc(CN(Cc2ccc3c(c2)OCO3)C(=O)NCCCC[C@@H](CO)N(CC(C)C)S(=O)(=O)c2ccc(N)cc2)cc1
- Ki [1]: 2.2 nM
- EC50 [2]: 500 nM

SMILES: CC(C)CN([C@H](CO)CCCCNC(=O)N(Cc1ccccc1)Cc1cccc2c1OCO2)S(=O)(=O)c1ccc(N)cc1
- Ki [1]: 5.4 nM
- EC50 [2]: > 10000 nM

SMILES: CC(C)CCN([C@H](CO)CCCCNC(=O)N(Cc1ccccc1)Cc1ccccc1)S(=O)(=O)c1ccc(N)cc1
- Ki [1]: 5.8 nM
- EC50 [3]: > 10000 nM

SMILES: COc1ccc(CN(Cc2ccc3c(c2)OCO3)C(=O)NCCCC[C@@H](CO)N(CCC(C)C)S(=O)(=O)c2ccc(N)cc2)cc1
- Ki [1]: 2.9 nM
- EC50 [3]: 700 nM

SMILES: CC(C)CCN([C@H](CO)CCCCNC(=S)N(Cc1ccc(F)cc1)Cc1ccc2c(c1)OCCO2)S(=O)(=O)c1ccc(N)cc1
- Ki [1]: 9.9 nM

SMILES: Cc1ccc(S(=O)(=O)N(CC(C)C)[C@@H](CCCCNC(=O)N(Cc2ccccc2)Cc2ccncc2)C(=O)O)cc1
- Ki [1]: 3.7 nM

SMILES: CC(C)CN([C@H](CO)CCCCNC(=O)N(Cc1ccc2c(c1)OCO2)Cc1ccc2c(c1)OCO2)S(=O)(=O)c1ccc(N)cc1
- Ki [1]: 1.7 nM
- EC50 [2]: 150 nM

SMILES: Cc1ccc(S(=O)(=O)N(CC(C)C)[C@@H](CCCCNC(=O)N(CCc2ccccc2)Cc2ccccc2)C(=O)O)cc1
- Ki [1]: > 300 nM

SMILES: CC(C)CCN([C@H](CO)CCCCNC(=O)N(Cc1ccc(C(F)(F)F)cc1)Cc1ccc2c(c1)OCO2)S(=O)(=O)c1ccc(N)cc1
- Ki [1]: 3 nM
- EC50 [3]: > 10000 nM

SMILES: CC(C)CN([C@H](CO)CCCCNC(=O)N(Cc1ccc2c(c1)OCO2)Cc1cccs1)S(=O)(=O)c1ccc(N)cc1
- Ki [1]: 2 nM
- EC50 [2]: 4000 nM

SMILES: CC(C)CN([C@H](CO)CCCCNC(=O)N(Cc1ccccc1)Cc1ccccc1)S(=O)(=O)c1ccc(N)cc1
- Ki [1]: 12 nM
- EC50 [2]: 3000 nM

SMILES: Cc1ccc(S(=O)(=O)N(CC(C)C)[C@@H](CCCCNC(=O)NCc2ccccn2)C(=O)O)cc1
- Ki [1]: > 300 nM

SMILES: CC(C)CCN([C@H](CO)CCCCNC(=O)N(Cc1ccc([N+](=O)[O-])cc1)Cc1ccc2c(c1)OCO2)S(=O)(=O)c1ccc(N)cc1
- Ki [1]: 2.2 nM
- EC50 [3]: 845 nM

SMILES: Cc1ccc(S(=O)(=O)N(CC(C)C)[C@H](CO)CCCCNC(=O)N(Cc2ccccc2)Cc2ccccc2)cc1
- Ki [1]: 15 nM

SMILES: Cc1ccc(S(=O)(=O)N(CC(C)C)[C@@H](CCCCNC(=O)NCCc2ccccc2)C(=O)O)cc1
- Ki [1]: 204 nM

SMILES: CC(C)CN([C@H](CO)CCCCNC(=O)N(Cc1ccccc1)Cc1ccc2c(c1)OCO2)S(=O)(=O)c1ccc(N)cc1
- Ki [1]: 2.6 nM
- EC50 [2]: 1400 nM

SMILES: CC(C)CCN([C@H](CO)CCCCNC(=O)N(Cc1ccc(F)cc1)Cc1ccc2c(c1)OCO2)S(=O)(=O)c1ccc(N)cc1
- Ki [1]: 4.9 nM
- EC50 [3]: 1200 nM

SMILES: CC(C)CCN([C@H](CO)CCCCNC(=O)N(Cc1ccc2c(c1)OCO2)Cc1cccs1)S(=O)(=O)c1ccc(N)cc1
- Ki [1]: 1.4 nM
- EC50 [3]: 800 nM

SMILES: CC(C)CN([C@H](CO)CCCCNC(=O)N(Cc1ccc(F)cc1)Cc1ccc2c(c1)OCO2)S(=O)(=O)c1ccc(N)cc1
- Ki [1]: 2 nM
- EC50 [2]: 488 nM

SMILES: COc1ccc(CN(Cc2ccc3c(c2)OCO3)C(=O)NCCCC[C@@H](CO)N(CCC(C)C)S(=O)(=O)c2ccc(N)cc2)cc1OC
- Ki [1]: 3 nM

SMILES: COc1cccc(CN(Cc2ccc3c(c2)OCO3)C(=O)NCCCC[C@@H](CO)N(CCC(C)C)S(=O)(=O)c2ccc(N)cc2)c1
- Ki [1]: 2.2 nM

SMILES: CC(C)CCN([C@H](CO)CCCCNC(=O)N(Cc1ccc(F)cc1)Cc1ccc2c(c1)OCCO2)S(=O)(=O)c1ccc(N)cc1
- Ki [1]: 5.4 nM

SMILES: COc1cccc(CN(Cc2ccc3c(c2)OCO3)C(=S)NCCCC[C@@H](CO)N(CCC(C)C)S(=O)(=O)c2ccc(N)cc2)c1
- Ki [1]: 2.6 nM

SMILES: CC(C)CN([C@H](CO)CCCCNC(=O)N(Cc1ccsc1)Cc1ccc2c(c1)OCO2)S(=O)(=O)c1ccc(N)cc1
- Ki [1]: 6.3 nM
- EC50 [2]: 5000 nM

SMILES: CC(C)CN([C@H](CO)CCCCNC(=O)N(Cc1ccccc1)Cc1ccc(F)cc1F)S(=O)(=O)c1ccc(N)cc1
- Ki [1]: 12 nM
- EC50 [2]: 3200 nM

SMILES: CC(C)CN([C@H](CO)CCCCNC(=O)N(Cc1ccccc1)Cc1cccs1)S(=O)(=O)c1ccc(N)cc1
- Ki [1]: 11 nM
- EC50 [2]: 5000 nM

SMILES: CC(C)CN([C@H](CO)CCCCNC(=O)N(Cc1ccc(C(F)(F)F)cc1)Cc1ccc2c(c1)OCO2)S(=O)(=O)c1ccc(N)cc1
- Ki [1]: 2.5 nM
- EC50 [2]: 1600 nM

SMILES: CC(C)CCN([C@H](CO)CCCCNC(=O)N(Cc1ccccc1)Cc1ccc2c(c1)OCO2)S(=O)(=O)c1ccc(N)cc1
- Ki [1]: 4.1 nM
- EC50 [3]: 871 nM

SMILES: COc1ccc(CN(Cc2ccc3c(c2)OCO3)C(=S)NCCCC[C@@H](CO)N(CCC(C)C)S(=O)(=O)c2ccc(N)cc2)cc1
- Ki [1]: 3.6 nM

SMILES: COc1ccc(CN(Cc2ccc3c(c2)OCO3)C(=S)NCCCC[C@@H](CO)N(CCC(C)C)S(=O)(=O)c2ccc(N)cc2)cc1OC
- Ki [1]: 2.9 nM

SMILES: CC(C)CN([C@H](CO)CCCCNC(=O)N(Cc1ccc([N+](=O)[O-])cc1)Cc1ccc2c(c1)OCO2)S(=O)(=O)c1ccc(N)cc1
- Ki [1]: 2 nM
- EC50 [2]: 620 nM

SMILES: CC(C)CCN([C@H](CO)CCCCNC(=O)N(Cc1ccccc1)Cc1cccc2c1OCO2)S(=O)(=O)c1ccc(N)cc1
- Ki [1]: 4 nM
- EC50 [3]: > 10000 nM

SMILES: Cc1ccc(S(=O)(=O)N(CC(C)C)[C@@H](CCCCNC(=O)N(Cc2ccccc2)C(C)C)C(=O)O)cc1
- Ki [1]: 19 nM

SMILES: CC(C)CN([C@H](CO)CCCCNC(=O)N(Cc1ccccc1)Cc1ccc(F)cc1)S(=O)(=O)c1ccc(N)cc1
- Ki [1]: 3.3 nM
- EC50 [2]: > 10000 nM

SMILES: CC(C)CN([C@H](CO)CCCCNC(=O)N(Cc1ccccc1)Cc1cccnc1)S(=O)(=O)c1ccc(N)cc1
- Ki [1]: 34 nM
- EC50 [2]: 8500 nM

SMILES: CC(C)CN([C@H](CO)CCCCNC(=O)N(Cc1ccccc1)Cc1ccncc1)S(=O)(=O)c1ccc(N)cc1
- Ki [1]: 90 nM
- EC50 [2]: > 10000 nM

SMILES: Cc1ccc(S(=O)(=O)N(CC(C)C)[C@@H](CCCCNC(=O)N(C(C)C)C(C)C)C(=O)O)cc1
- Ki [1]: 300 nM
